# According to patent publication US20240009259A1, “USE OF CRASSOCEPHALUM RABENS EXTRACT IN THE PREVENTION AND/OR TREATMENT OF FATIGUE AND/OR DEPRESSION” (ACADEMIA SINICA, priority 2021, published 2024):
# Structures can show the parent of a compound that is named as a salt.
# Columns and labels:
# [1] = tested on: skeletal muscle malate dehydrogenase (MDH); assay: Skeletal muscle malate dehydrogenase (MDH) activity after forced swimming test; format: in vivo, BALB/c mice; conditions: Program II; male mice; Fluoxetine 10 mg/kg i.p. daily
# [2] = tested on: skeletal muscle lactate dehydrogenase (LDH); assay: Skeletal muscle lactate dehydrogenase (LDH) activity after forced swimming test; format: in vivo, BALB/c mice; conditions: Program II; male mice; Fluoxetine 10 mg/kg i.p. daily
# [3] = format: in vivo, BALB/c mice; conditions: Program II; male mice; Fluoxetine 10 mg/kg i.p. daily, 4 weeks
# [4] = Blood (serum) biochemical parameters after 28-day treatment; format: in vivo, BALB/c mice; conditions: male mice, 28 days
smiles,measurement,setting,value
"CNCCC(Oc1ccc(C(F)(F)F)cc1)c1ccccc1 (centres unmarked) [Fluoxetine, fluoxetine hydrochloride]",increase of MDH activity compared to the vehicle control treatment,[1],1.1 fold
same,increase of LDH activity compared to the vehicle control treatment,[2],1.3 fold
same,"body weight, feed and water intake",[3],did not have significant differences
same,"ALB, albumin (serum)",[4]; Fluoxetine 10 mg/kg i.p. daily,3.67 ± 0.28 g/dL
same,"ALP, alkaline phosphatase (serum)",[4]; Fluoxetine 10 mg/kg i.p. daily,501.2 ± 21.2 U/L
same,"CHO, cholesterol (serum)",[4]; Fluoxetine 10 mg/kg i.p. daily,136.5 ± 42.9 mg/dL
same,"CTE, creatinine (serum)",[4]; Fluoxetine 10 mg/kg i.p. daily,0.45 ± 0.05 mg/dL
same,"GLU, glucose (serum)",[4]; Fluoxetine 10 mg/kg i.p. daily,207.0 ± 12.6 mg/dL
same,"GOT, glutamic oxaloacetic transaminase (serum)",[4]; Fluoxetine 10 mg/kg i.p. daily,171.0 ± 19.8 U/L
same,"GPT, glutamic pyruvic transaminase (serum)",[4]; Fluoxetine 10 mg/kg i.p. daily,61.2 ± 19.2 U/L
same,"HDL, high-density lipoprotein (serum)",[4]; Fluoxetine 10 mg/kg i.p. daily,136.6 ± 15.3 mg/dL
same,"LDH, lactate dehydrogenase (serum)",[4]; Fluoxetine 10 mg/kg i.p. daily,362.7 ± 65.3 U/L
same,"TBIL, total bilirubin (serum)",[4]; Fluoxetine 10 mg/kg i.p. daily,0.65 ± 0.04 mg/dL
same,"TG, triglyceride (serum)",[4]; Fluoxetine 10 mg/kg i.p. daily,288.3 ± 27.1 mg/dL
same,"TP, total protein (serum)",[4]; Fluoxetine 10 mg/kg i.p. daily,5.01 ± 0.35 g/dL
same,"UA, uric acid (serum)",[4]; Fluoxetine 10 mg/kg i.p. daily,2.77 ± 0.32 mg/dL
same,serum biochemical parameters,[4]; Fluoxetine i.p.,no significant difference and fall within the reference range of normal or healthy mice
